In general, IC50 refers to the concentration that inhibits the measured activity by half.

The target in one test is human recombinant DGK ξ (Homo sapiens (Human), UniProt Q13574). In words: Evaluation of DGK ξ inhibitory effect (ADP-Glo Kinase Assay). The format is biochemical. The conditions noted are these: ADP-Glo luminescence. The gist of the method: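 Enzyme was pre-incubated with compound for 15 min at room temperature in Tris-HCl pH 7.5 with MgCl2, DTT and BSA. The reaction ran 30 min after adding a substrate mix (pre-addition: 150 μM 1-oleoyl-2-acetyl-sn-glycerol, 480 μM phosphatidylserine, 150 μM ATP), with ADP-Glo luminescence read-out. IC50 came from Sigmoid-Emax regression, with solvent as 0% and no-enzyme as 100% inhibition.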
human recombinant DGK ξ, sequence (Q13574 whole entry): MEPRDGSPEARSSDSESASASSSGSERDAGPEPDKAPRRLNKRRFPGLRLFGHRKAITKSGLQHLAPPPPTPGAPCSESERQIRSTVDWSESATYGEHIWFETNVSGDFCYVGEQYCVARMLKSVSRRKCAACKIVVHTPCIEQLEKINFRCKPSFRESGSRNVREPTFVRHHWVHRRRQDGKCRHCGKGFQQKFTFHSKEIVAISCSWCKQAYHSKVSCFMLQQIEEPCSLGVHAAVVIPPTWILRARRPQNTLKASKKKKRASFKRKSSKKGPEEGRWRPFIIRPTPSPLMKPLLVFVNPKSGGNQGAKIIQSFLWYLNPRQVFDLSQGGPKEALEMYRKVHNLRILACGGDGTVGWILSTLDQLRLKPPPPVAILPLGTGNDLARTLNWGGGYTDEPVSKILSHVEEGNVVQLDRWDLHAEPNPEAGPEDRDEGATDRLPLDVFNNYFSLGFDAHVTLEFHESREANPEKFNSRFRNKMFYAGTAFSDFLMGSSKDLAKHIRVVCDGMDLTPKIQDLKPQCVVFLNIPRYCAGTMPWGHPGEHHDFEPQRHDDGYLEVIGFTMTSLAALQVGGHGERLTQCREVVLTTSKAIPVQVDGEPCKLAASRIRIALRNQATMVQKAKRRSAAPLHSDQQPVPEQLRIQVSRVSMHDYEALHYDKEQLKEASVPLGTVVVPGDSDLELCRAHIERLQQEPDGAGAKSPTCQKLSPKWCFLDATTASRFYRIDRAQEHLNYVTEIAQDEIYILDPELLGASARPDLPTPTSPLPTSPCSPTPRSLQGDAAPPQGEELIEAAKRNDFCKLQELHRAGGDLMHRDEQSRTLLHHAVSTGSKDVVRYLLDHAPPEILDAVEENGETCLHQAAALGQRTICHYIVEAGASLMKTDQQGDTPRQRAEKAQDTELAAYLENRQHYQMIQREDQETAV
Background: ADP-Glo first removes unused ATP, then detects ADP through luciferase.

Test [1] has as its system IL-2 production in Jurkat E6.1 cells. In words: Evaluation of IL-2 production in human T-cell leukemia cell line Jurkat E6.1 (TCR stimulation anti-CD3/anti-CD28). The format is cell-based. The conditions noted are these: Jurkat E6.1, 24 h, concentration at which IL-2 increased to 10 times the solvent control, Jurkat E6.1, anti-CD3/anti-CD28, 24 hours. The method, then:
Test Example 2. Evaluation of Il-2 Production in Human T-Cell Leukemia Cell Line Jurkat E6.1
The effect of the test compound on the IL-2 production by T-cell receptor (TCR) stimulation (anti-CD3/anti-CD28) in Jurkat E6.1 cells (ECACC, 88042803) was evaluated.
A 5 μg/mL anti-CD3 antibody (eBioscience, Inc., OKT3 clone) diluted with phosphate buffer saline (PBS) was added to a 96-well plate (Iwaki & Co., Ltd.) at 50 μL/well, and left standing at 4° C. for 12 hours or more to provide an anti-CD3 antibody-coated plate in advance. When the plate was used for experiments, the plate was washed with 200 μL of PBS once, an anti-CD28 antibody (eBioscience, Inc., 28.2 clone) diluted to a concentration of 10 μg/mL with a culture medium (RPMI1640 (Sigma-Aldlich Co. LLC.) containing 10% fetal bovine serum (Hyclone Laboratories, Inc.)) was then added at 10 μL/well, and the plate was used for assay as a culture plate for TCR stimulation.
Subsequently, the test compound was mixed with Jurkat E6.1 cells in such a manner that an intended final concentration was obtained, and the mixture was plated at 90 μL/well so that the number of cells per well was 1×10^5(that is, finally the culture was performed at 1×10^5 cells/100 μL/well). For culture cell conditions, the culture was performed at 37° C. in the presence of 5% CO2 using RPMI1640 medium containing 10% fatal bovine serum.
After 24 hours, the culture supernatant was collected, and IL-2 was quantitatively determined using AlphaLISA human IL2 Immunoassay Research Kit (PerkinElmer, Inc.). The IL-2 measurement was performed under Alpha Screen standard setting conditions (the fluorescence intensity at 570 nm was measured with an excitation wavelength of 680 nm) using EnVision 2104-0010 and EnVision 2104-0020 (PerkinElmer, Inc.). The IL-2 quantitative value of the solvent treatment control was set to 1, and the test compound concentration at which the IL-2 quantitative value of the test compound treatment sample increased to 10 times the IL-2 quantitative value of the control (EC10fold) was calculated by inverse estimation with the aid of Sigmoid-Emax model non-linear regression analysis. […] In the table, Ex represents the number of each Example described below.

The subject of another test is B16-F1 cells. In words: Evaluation of antitumor effect in syngeneic mouse model bearing mouse melanoma cell line B16-F1. Type of test: in vivo. The conditions noted are these: po, 240 h, C57BL/6J mice bearing B16-F1, read-out: Antitumor effect (relative tumor growth inhibition); for inhibition in vivo at 0.3 mg/kg: 0.3 mg/kg orally once daily for 10 days; for inhibition in vivo at 0.03 mg/kg: 0.03 mg/kg orally once daily for 10 days. The method, then: Test Example 3: Evaluation of Antitumor Effect in Syngeneic Mouse Model Bearing Mouse Melanoma Cell Line B16-F1
A cell suspension liquid prepared by suspending B16-F1 cells (ATCC, CRL-6323) in PBS at 2.0×10^6 cells/mL was subcutaneously inoculated into 5-week-old female mice (C57BL/6J from Charles River Laboratories Japan, Inc.) in a volume of 50 μL. 5 days after the inoculation, the mice were grouped in such a manner that there was substantially no difference in tumor volume between groups, and administration of the test compound was started. The test was conducted with a solvent group and a test compound administration group each having 10 mice. 0.5% methylcellulose (Shin-Etsu Chemical Co., Ltd.) was orally administered to the solvent group, and 0.5% methylcellulose mixed with the test compound was orally administered to the test compound administration group. The administration was performed for 10 days once daily, and the tumor diameter and the body weight were measured twice a week. The following expression was used for calculation of the tumor volume.
[tumor volume (mm^3)]=[tumor major diameter […]]×[tumor minor diameter (mm)]^2×0.5
The relative tumor growth inhibition (%) of the test compound was calculated, where the tumor volume of the solvent group immediately before the start of administration was set to 100% inhibition, and the tumor volume of the solvent group on the day after the last administration was set to 0% inhibition. […] In the table, Ex represents the number of each Example described below.

Each structure is given as a SMILES string. Counter-ions that a name gives are not always drawn.

On to `CN1CCN(c2c(NC(=O)c3ccn(CC(F)F)n3)ccc(Oc3ccccc3Cl)c2C(F)(F)F)C[C@@H]1CN` [Example 13], for which the IC50 at human recombinant DGK ξ came out at 18 nM. Besides, the EC (10-fold increase) in test [1] worked out at 0.34 µM. The inhibition in vivo at 0.3 mg/kg in the test on B16-F1 cells was 36%.

Consider `CN1CCN(c2c(NC(=O)c3ccn(CC(F)F)n3)ccc(Oc3ccccc3Cl)c2Cl)C[C@@H]1CN` [Example 20], for which the IC50 at human recombinant DGK ξ worked out at 20 nM. For the same molecule, the EC (10-fold increase) in test [1] came out at 0.036 µM. The inhibition in vivo at 0.3 mg/kg with B16-F1 cells came out at 33%.

For `CNC[C@H]1CN(c2c(NC(=O)c3ccn(-c4ccnnc4)n3)ccc(C3CCCC3)c2C(F)(F)F)CCN1C` [Example 48], the IC50 at human recombinant DGK ξ stood at 5.8 nM. Moreover, the inhibition in vivo at 0.3 mg/kg in the test on B16-F1 cells amounted to 40%.

Take `N[C@@H]1CCN2CCN(c3c(NC(=O)c4coc(-c5ccnnc5)n4)ccc(Oc4ccccc4F)c3C(F)(F)F)C[C@@H]12` [Example 80]: the IC50 on human recombinant DGK ξ turned out to be 45 nM. Also, the EC (10-fold increase) in test [1] was 0.46 µM. In addition, the inhibition in vivo at 0.3 mg/kg in the test with B16-F1 cells was determined as 31%.

For the molecule `CNC[C@H]1CN(c2c(NC(=O)c3ccn(-c4ccnnc4)n3)ccc(Oc3ccccc3F)c2Cl)CCN1C` [Example 86, N-[3-chloro-4-(2-fluorophenoxy)-2-{(3S)-4-methyl-3-[(methylamino)methyl]piperazin-1-yl}phenyl]-1-(pyridazin-4-yl)-1H-pyrazole-3-carboxamide], the 50% inhibitory concentration (IC50) at human recombinant DGK ξ is 2.9 nM. For the same molecule, the inhibition in vivo at 0.3 mg/kg with B16-F1 cells was 31%.

Take `NC[C@]1(F)CCCN(c2c(NC(=O)c3ccn(-c4ccnnc4)n3)ccc(Oc3ccccc3F)c2C(F)(F)F)C1` [Example 45]: at human recombinant DGK ξ, the IC50 worked out at 12 nM. Further, the inhibition in vivo at 0.03 mg/kg with B16-F1 cells came to 30%.

As for `CNC[C@H]1CN(c2c(NC(=O)c3ccn(-c4ccnnc4)n3)ccc(Oc3ccccc3F)c2C(F)(F)F)CCN1C` [Example 29, N-[4-(2-fluorophenoxy)-2-{(3S)-4-methyl-3-[(methylamino)methyl]piperazin-1-yl}-3-(trifluoromethyl)phenyl]-1-(pyridazin-4-yl)-1H-pyrazole-3-carboxamide], on human recombinant DGK ξ, the IC50 is 10 nM. Also, in the test on B16-F1 cells, the inhibition in vivo at 0.3 mg/kg stood at 41%.

As to `CNC[C@@H]1CN(c2c(NC(=O)c3ccn(-c4ccnnc4)n3)ccc(Oc3ccccc3F)c2C(F)(F)F)CCN1C` [Example 47], the IC50 on human recombinant DGK ξ came out at 6.7 nM. Moreover, the inhibition in vivo at 0.3 mg/kg with B16-F1 cells amounted to 42%.

As to `NC[C@@H]1CCCN(c2c(NC(=O)c3ccn(CC(F)F)n3)ccc(Oc3ccccc3F)c2C(F)(F)F)C1` [Example 1, monohydrochloride], the EC (10-fold increase) in test [1] was found to be 0.11 µM. In the test with B16-F1 cells, the inhibition in vivo at 0.03 mg/kg came out at 35%.

These data come from US20240043403A1, “HETEROARYL CARBOXAMIDE COMPOUND” (Astellas Pharma Inc., priority 2020, published 2024).
